{"source": "paper PMC11539907", "about": "“Cytotoxicity of norstictic acid derivatives, a depsidone from Ramalina anceps Nyl” (Turkish Journal of Chemistry, 2024)", "key": {"[1]": {"test_system": "HEP2 (laryngeal carcinoma) cells", "experiment": "sulforhodamine B (SRB) cytotoxicity assay, HEP2", "format": "cell-based", "details": "for selectivity index (SI): GI50 on 3T3 cells divided by GI50 on HEP2; for GI50: Homo sapiens, HEp-2, HEP2 cells, SRB assay, read-out: growth inhibition (GI50)", "description": "(§1) MCF7 (ATCC HTB-22, breast adenocarcinoma), 786-0 (ATCC CRL-1932, renal cell adenocarcinoma), PC-03 (ATCC CRL-1435, prostatic adenocarcinoma), HT-29 (ATCCHTB-38, colorectal adenocarcinoma), and HEP2 (ATCC CCL-23, laryngeal carcinoma) cells donated by Dr. João Ernesto de Carvalho (CPQBA – UNICAMP), and NIH/3T3 cells (ATCC CRL-1658, mouse embryonic fibroblast), purchased from the Rio de Janeiro Cell Bank, were used for the evaluation of cytotoxic activity. Cell maintenance and treatment were performed as described by Freshney. The sulforhodamine B (SRB) assay was carried out according to Brandão et al. and Bogo et al..\n(§2) The selectivity index (SI) measures a compound’s ability to target a neoplastic cell line rather than a normal cell line, indicating its potential for use in clinical trials. In the present study, the SI of each substance was calculated as the quotient of its GI50 value for normal NIH/3T3 cells divided by the GI50 value for a neoplastic cell line. SI values greater than 3.0 were considered significant."}, "[2]": {"test_system": "MCF7 (breast carcinoma) cells", "experiment": "sulforhodamine B (SRB) cytotoxicity assay, MCF7", "format": "cell-based", "details": "for selectivity index (SI): GI50 on 3T3 cells divided by GI50 on MCF7; for GI50: Homo sapiens, MCF7 cells, SRB assay, read-out: growth inhibition (GI50)", "description": "as §1, §2"}, "[3]": {"test_system": "tested tumor cells (786-0, MCF7, HT-29, PC-03, HEP2, B16-F10, UACC-62)", "experiment": "sulforhodamine B (SRB) cytotoxicity assay, results stated over several cell lines", "format": "cell-based", "details": "for cytotoxic activity in words: cell lines as named in the quoted words", "description": "as §1, §2"}, "[4]": {"test_system": "NIH/3T3 (mouse embryonic fibroblast) cells", "experiment": "sulforhodamine B (SRB) cytotoxicity assay, NIH/3T3 normal cells", "format": "cell-based", "details": "for GI50: Mus musculus, NIH3T3, NIH/3T3 normal cells, SRB assay, read-out: growth inhibition (GI50)", "description": "as §1, §2"}, "[5]": {"test_system": "PC-03 (prostate carcinoma) cells", "experiment": "sulforhodamine B (SRB) cytotoxicity assay, PC-03", "format": "cell-based", "details": "for selectivity index (SI): GI50 on 3T3 cells divided by GI50 on PC-03; for GI50: PC-03 cells, SRB assay, read-out: growth inhibition (GI50)", "description": "as §1, §2"}, "[6]": {"test_system": "UACC-62 (human melanoma) cells", "experiment": "sulforhodamine B (SRB) cytotoxicity assay, UACC-62", "format": "cell-based", "details": "for selectivity index (SI): GI50 on 3T3 cells divided by GI50 on UACC-62; for GI50: Homo sapiens, UACC-62 cells, SRB assay, read-out: growth inhibition (GI50)", "description": "[Worded in the source for another cell line; this cell line is reported under the same test.] as §1, §2"}, "[7]": {"test_system": "HT-29 (colon carcinoma) cells", "experiment": "sulforhodamine B (SRB) cytotoxicity assay, HT-29", "format": "cell-based", "details": "for selectivity index (SI): GI50 on 3T3 cells divided by GI50 on HT-29; for GI50: Homo sapiens, HT-29 cells, SRB assay, read-out: growth inhibition (GI50)", "description": "as §1, §2"}, "[8]": {"test_system": "B16-F10 (murine melanoma) cells", "experiment": "sulforhodamine B (SRB) cytotoxicity assay, B16-F10", "format": "cell-based", "details": "for GI50: Mus musculus, B16-F10 cells, SRB assay, read-out: growth inhibition (GI50); for selectivity index (SI): GI50 on 3T3 cells divided by GI50 on B16-F10", "description": "[Worded in the source for another cell line; this cell line is reported under the same test.] as §1, §2"}, "[9]": {"test_system": "786-0 (kidney carcinoma) cells", "experiment": "sulforhodamine B (SRB) cytotoxicity assay, 786-0", "format": "cell-based", "details": "for selectivity index (SI): GI50 on 3T3 cells divided by GI50 on 786-0; for GI50: Homo sapiens, 786-0 cells, SRB assay, read-out: growth inhibition (GI50)", "description": "as §1, §2"}}, "note": "“Also recorded” adds a separate entry of the source. Like-named read-outs stand apart in the source and are kept apart here.", "data": [{"smiles": "CCCOC1OC(=O)c2c(O)c(C)c3c(c21)Oc1c(C=O)c(O)cc(C)c1C(=O)O3", "note": "(stereo not drawn) [compound 2, 8′-O-n-propyl-norstictic acid]", "values": [{"measurement": "selectivity index (SI)", "setting": "[1]", "result": 0.94}, {"measurement": "GI50", "setting": "[1]", "result": 70, "unit": "µM"}, {"measurement": "melting point", "result": 183, "unit": "°C"}, {"measurement": "selectivity index (SI)", "setting": "[2]", "result": 0.15}, {"measurement": "GI50", "setting": "[2]", "result": 410, "unit": "µM"}, {"measurement": "cytotoxic activity in words", "setting": "[3]", "result": "did not show activity against the tested tumor cells; also recorded: comparatively low activity against the cancerous cell lines"}, {"measurement": "GI50", "setting": "[4]", "result": 63, "unit": "µM"}, {"measurement": "selectivity index (SI)", "setting": "[5]", "result": 2.03}, {"measurement": "selectivity index (SI)", "setting": "[5]; listed as n-propyl", "result": 33.8}, {"measurement": "GI50", "setting": "[5]; listed as n-propyl", "result": 1.28, "unit": "µM"}, {"measurement": "GI50", "setting": "[5]", "result": 30, "unit": "µM"}, {"measurement": "selectivity index (SI)", "setting": "[6]", "result": 1.2}, {"measurement": "GI50", "setting": "[6]", "result": 50, "unit": "µM"}, {"measurement": "selectivity index (SI)", "setting": "[7]", "result": 0.13}, {"measurement": "GI50", "setting": "[7]", "result": 470, "unit": "µM"}, {"measurement": "GI50", "setting": "[8]", "result": "> 600", "unit": "µM"}, {"measurement": "selectivity index (SI)", "setting": "[9]", "result": 0.43}, {"measurement": "GI50", "setting": "[9]", "result": 140, "unit": "µM"}]}, {"smiles": "CCCCOC1OC(=O)c2c(O)c(C)c3c(c21)Oc1c(C=O)c(O)cc(C)c1C(=O)O3", "note": "(stereo not drawn) [compound 3, 8′-O-n-butyl-norstictic acid]", "values": [{"measurement": "selectivity index (SI)", "setting": "[1]", "result": 78.77}, {"measurement": "GI50", "setting": "[1]", "result": 7.94, "unit": "µM"}, {"measurement": "melting point", "result": 169, "unit": "°C"}, {"measurement": "selectivity index (SI)", "setting": "[2]", "result": 47.15}, {"measurement": "GI50", "setting": "[2]", "result": 13.3, "unit": "µM"}, {"measurement": "selectivity index (SI), range over all tumor cells", "setting": "[3]; all tested tumor cells vs NIH/3T3", "result": "13.88–98.11"}, {"measurement": "GI50", "setting": "[3]; all tested tumor cells, read-out: GI50, range over all tumor cells", "result": "6.37 to 45", "unit": "µM"}, {"measurement": "effect on normal cells in words", "setting": "[4]; 3T3 cells", "result": "lowest effect on 3T3 cells"}, {"measurement": "GI50", "setting": "[4]", "result": 625, "unit": "µM"}, {"measurement": "selectivity index (SI)", "setting": "[5]", "result": 98.11}, {"measurement": "GI50", "setting": "[5]", "result": 6.37, "unit": "µM"}, {"measurement": "selectivity index (SI)", "setting": "[6]", "result": 54.1}, {"measurement": "GI50", "setting": "[6]", "result": 11.5, "unit": "µM"}, {"measurement": "selectivity index (SI)", "setting": "[7]", "result": 16.34}, {"measurement": "GI50", "setting": "[7]", "result": 38.3, "unit": "µM"}, {"measurement": "selectivity index (SI)", "setting": "[8]", "result": 13.88}, {"measurement": "GI50", "setting": "[8]", "result": 45, "unit": "µM"}, {"measurement": "selectivity index (SI)", "setting": "[9]", "result": 22.21}, {"measurement": "GI50", "setting": "[9]", "result": 28.2, "unit": "µM"}]}, {"smiles": "CCCCCOC1OC(=O)c2c(O)c(C)c3c(c21)Oc1c(C=O)c(O)cc(C)c1C(=O)O3", "note": "(stereo not drawn) [compound 4, 8′-O-n-pentyl-norstictic acid]", "values": [{"measurement": "selectivity index (SI)", "setting": "[1]", "result": 1.19}, {"measurement": "GI50", "setting": "[1]", "result": 48.2, "unit": "µM"}, {"measurement": "melting point", "result": 175, "unit": "°C"}, {"measurement": "selectivity index (SI)", "setting": "[2]", "result": 3.69}, {"measurement": "GI50", "setting": "[2]", "result": 15.5, "unit": "µM"}, {"measurement": "cytotoxic activity in words", "setting": "[3]", "result": "low biological activity"}, {"measurement": "GI50", "setting": "[4]", "result": 57.2, "unit": "µM"}, {"measurement": "selectivity index (SI)", "setting": "[5]", "result": 6.53}, {"measurement": "GI50", "setting": "[5]", "result": 8.77, "unit": "µM"}, {"measurement": "selectivity index (SI)", "setting": "[6]", "result": 1.51}, {"measurement": "GI50", "setting": "[6]", "result": 37.8, "unit": "µM"}, {"measurement": "selectivity index (SI)", "setting": "[7]", "result": 1.50}, {"measurement": "GI50", "setting": "[7]", "result": 38.2, "unit": "µM"}, {"measurement": "selectivity index (SI)", "setting": "[8]", "result": 1.03}, {"measurement": "GI50", "setting": "[8]", "result": 55.4, "unit": "µM"}, {"measurement": "selectivity index (SI)", "setting": "[9]", "result": 0.75}, {"measurement": "GI50", "setting": "[9]", "result": 76.2, "unit": "µM"}]}, {"smiles": "CCCCCCOC1OC(=O)c2c(O)c(C)c3c(c21)Oc1c(C=O)c(O)cc(C)c1C(=O)O3", "note": "(stereo not drawn) [compound 5, 8′-O-n-hexyl-norstictic acid]", "values": [{"measurement": "selectivity index (SI)", "setting": "[1]", "result": 9.2}, {"measurement": "GI50", "setting": "[1]", "result": 5.96, "unit": "µM"}, {"measurement": "melting point", "result": 178, "unit": "°C"}, {"measurement": "selectivity index (SI)", "setting": "[2]", "result": 5.76}, {"measurement": "GI50", "setting": "[2]", "result": 9.53, "unit": "µM"}, {"measurement": "GI50", "setting": "[3]; MCF7, HT-29, PC-03, and HEP2 cells, read-out: GI50, range", "result": "5.96 to 9.53", "unit": "µM"}, {"measurement": "cytotoxic activity in words", "setting": "[3]", "result": "showed activity against MCF7, HT-29, PC-03, and HEP2 cells"}, {"measurement": "GI50", "setting": "[4]", "result": 54.9, "unit": "µM"}, {"measurement": "selectivity index (SI)", "setting": "[5]", "result": 7.60}, {"measurement": "GI50", "setting": "[5]", "result": 7.23, "unit": "µM"}, {"measurement": "selectivity index (SI)", "setting": "[6]", "result": 1.06}, {"measurement": "GI50", "setting": "[6]", "result": 51.6, "unit": "µM"}, {"measurement": "selectivity index (SI)", "setting": "[7]", "result": 7.66}, {"measurement": "GI50", "setting": "[7]", "result": 7.16, "unit": "µM"}, {"measurement": "selectivity index (SI)", "setting": "[8]", "result": 0.97}, {"measurement": "GI50", "setting": "[8]", "result": 56.3, "unit": "µM"}, {"measurement": "selectivity index (SI)", "setting": "[9]", "result": 1.75}, {"measurement": "GI50", "setting": "[9]", "result": 31.4, "unit": "µM"}]}]}
